Assays:
Assay type in all cases: binding
[1] = target: kinases (KINOMEscan panel) (Homo sapiens, UniProt Q9UQM7); settings: kinase CAMK2A; NEW KINOMEscan
[2] = target: kinases (KINOMEscan panel) (Homo sapiens, UniProt P42336, H1047Y); settings: kinase PIK3CA(H1047Y); NEW KINOMEscan
[3] = target: kinases (KINOMEscan panel) (Homo sapiens, UniProt Q9HAZ1); settings: kinase CLK4; NEW KINOMEscan
[4] = target: kinases (KINOMEscan panel) (Homo sapiens, UniProt P00519, Q252H); settings: NEW KINOMEscan; for KINOMEscan ABL1(Q252H)-nonphosphorylated: kinase ABL1(Q252H)-nonphosphorylated; for KINOMEscan ABL1(Q252H)-phosphorylated: kinase ABL1(Q252H)-phosphorylated
[5] = target: T1, kinases (KINOMEscan panel) (Homo sapiens, UniProt P30530); settings: AXL; NEW KINOMEscan
T1 sequence (P30530 26-894): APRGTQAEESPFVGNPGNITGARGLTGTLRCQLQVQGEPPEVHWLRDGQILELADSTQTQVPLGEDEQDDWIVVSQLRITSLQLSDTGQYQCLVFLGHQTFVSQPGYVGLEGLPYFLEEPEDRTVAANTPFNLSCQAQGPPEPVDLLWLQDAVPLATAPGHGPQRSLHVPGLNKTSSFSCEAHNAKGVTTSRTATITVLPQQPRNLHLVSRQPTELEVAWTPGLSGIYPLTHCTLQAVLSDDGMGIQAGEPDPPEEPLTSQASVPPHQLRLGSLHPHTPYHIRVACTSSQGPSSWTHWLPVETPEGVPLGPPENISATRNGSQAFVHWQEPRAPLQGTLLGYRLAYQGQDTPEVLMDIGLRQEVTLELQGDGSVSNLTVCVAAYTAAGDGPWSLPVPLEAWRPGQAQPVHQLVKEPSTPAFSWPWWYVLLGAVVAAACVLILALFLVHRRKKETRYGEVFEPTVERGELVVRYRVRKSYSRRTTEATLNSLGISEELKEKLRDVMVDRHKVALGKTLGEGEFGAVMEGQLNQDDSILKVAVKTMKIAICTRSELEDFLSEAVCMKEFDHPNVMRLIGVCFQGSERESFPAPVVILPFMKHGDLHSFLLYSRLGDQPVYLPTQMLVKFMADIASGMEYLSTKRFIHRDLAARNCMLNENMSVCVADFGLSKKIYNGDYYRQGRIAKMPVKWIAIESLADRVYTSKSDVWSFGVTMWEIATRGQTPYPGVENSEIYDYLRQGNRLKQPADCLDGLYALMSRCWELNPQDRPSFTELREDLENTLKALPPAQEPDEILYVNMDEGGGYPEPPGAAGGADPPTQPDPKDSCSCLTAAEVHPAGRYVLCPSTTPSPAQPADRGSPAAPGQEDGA

[6] = target: T2, kinases (KINOMEscan panel) (Homo sapiens, UniProt Q9BRS2); settings: RIOK1; NEW KINOMEscan
T2 sequence (Q9BRS2 1-568): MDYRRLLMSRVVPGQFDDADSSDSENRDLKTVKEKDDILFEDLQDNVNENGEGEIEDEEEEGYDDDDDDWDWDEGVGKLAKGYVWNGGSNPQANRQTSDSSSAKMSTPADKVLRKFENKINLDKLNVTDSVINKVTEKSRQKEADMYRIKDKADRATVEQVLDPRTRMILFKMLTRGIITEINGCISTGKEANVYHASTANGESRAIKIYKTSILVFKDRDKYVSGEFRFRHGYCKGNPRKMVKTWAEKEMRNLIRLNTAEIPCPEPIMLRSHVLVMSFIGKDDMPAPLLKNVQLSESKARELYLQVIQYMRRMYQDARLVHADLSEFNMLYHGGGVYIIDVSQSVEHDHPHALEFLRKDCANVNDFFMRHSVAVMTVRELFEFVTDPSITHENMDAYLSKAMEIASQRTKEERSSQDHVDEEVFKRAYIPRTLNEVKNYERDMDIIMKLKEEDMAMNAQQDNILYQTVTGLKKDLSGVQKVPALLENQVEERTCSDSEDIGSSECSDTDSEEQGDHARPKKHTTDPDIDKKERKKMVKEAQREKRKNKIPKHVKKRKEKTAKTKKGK

[7] = target: kinases (KINOMEscan panel) (Homo sapiens, UniProt P53778)
[8] = target: T3, kinases (KINOMEscan panel) (Homo sapiens, UniProt P33981); settings: NEW KINOMEscan
T3 sequence (P33981 1-857): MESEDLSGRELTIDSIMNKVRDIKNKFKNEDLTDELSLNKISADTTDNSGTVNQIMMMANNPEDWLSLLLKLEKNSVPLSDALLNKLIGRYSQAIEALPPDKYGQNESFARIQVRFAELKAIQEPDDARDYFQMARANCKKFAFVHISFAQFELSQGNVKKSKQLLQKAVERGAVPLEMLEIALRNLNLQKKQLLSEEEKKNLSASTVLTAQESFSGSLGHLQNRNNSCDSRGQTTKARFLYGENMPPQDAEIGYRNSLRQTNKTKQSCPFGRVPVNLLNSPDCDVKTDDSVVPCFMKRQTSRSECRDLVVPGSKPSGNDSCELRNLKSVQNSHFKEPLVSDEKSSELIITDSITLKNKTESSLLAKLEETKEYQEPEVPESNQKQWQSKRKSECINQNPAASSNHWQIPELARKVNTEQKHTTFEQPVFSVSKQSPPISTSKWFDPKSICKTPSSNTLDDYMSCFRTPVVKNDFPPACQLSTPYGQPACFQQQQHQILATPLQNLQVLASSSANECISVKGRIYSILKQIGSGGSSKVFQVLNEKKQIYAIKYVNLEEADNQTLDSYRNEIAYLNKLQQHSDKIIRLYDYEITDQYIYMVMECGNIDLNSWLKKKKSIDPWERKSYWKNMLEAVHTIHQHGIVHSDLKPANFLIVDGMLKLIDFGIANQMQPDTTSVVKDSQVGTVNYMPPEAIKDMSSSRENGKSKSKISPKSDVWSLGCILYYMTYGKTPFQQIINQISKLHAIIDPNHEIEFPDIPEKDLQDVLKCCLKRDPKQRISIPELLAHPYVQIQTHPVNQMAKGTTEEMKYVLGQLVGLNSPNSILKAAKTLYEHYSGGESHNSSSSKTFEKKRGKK

[9] = target: kinases (KINOMEscan panel) (Homo sapiens, UniProt P07949, V804M); settings: kinase RET(V804M); NEW KINOMEscan
kinases (KINOMEscan panel) (Homo sapiens, UniProt P07949, V804M), sequence (P07949 29-1114 V804M): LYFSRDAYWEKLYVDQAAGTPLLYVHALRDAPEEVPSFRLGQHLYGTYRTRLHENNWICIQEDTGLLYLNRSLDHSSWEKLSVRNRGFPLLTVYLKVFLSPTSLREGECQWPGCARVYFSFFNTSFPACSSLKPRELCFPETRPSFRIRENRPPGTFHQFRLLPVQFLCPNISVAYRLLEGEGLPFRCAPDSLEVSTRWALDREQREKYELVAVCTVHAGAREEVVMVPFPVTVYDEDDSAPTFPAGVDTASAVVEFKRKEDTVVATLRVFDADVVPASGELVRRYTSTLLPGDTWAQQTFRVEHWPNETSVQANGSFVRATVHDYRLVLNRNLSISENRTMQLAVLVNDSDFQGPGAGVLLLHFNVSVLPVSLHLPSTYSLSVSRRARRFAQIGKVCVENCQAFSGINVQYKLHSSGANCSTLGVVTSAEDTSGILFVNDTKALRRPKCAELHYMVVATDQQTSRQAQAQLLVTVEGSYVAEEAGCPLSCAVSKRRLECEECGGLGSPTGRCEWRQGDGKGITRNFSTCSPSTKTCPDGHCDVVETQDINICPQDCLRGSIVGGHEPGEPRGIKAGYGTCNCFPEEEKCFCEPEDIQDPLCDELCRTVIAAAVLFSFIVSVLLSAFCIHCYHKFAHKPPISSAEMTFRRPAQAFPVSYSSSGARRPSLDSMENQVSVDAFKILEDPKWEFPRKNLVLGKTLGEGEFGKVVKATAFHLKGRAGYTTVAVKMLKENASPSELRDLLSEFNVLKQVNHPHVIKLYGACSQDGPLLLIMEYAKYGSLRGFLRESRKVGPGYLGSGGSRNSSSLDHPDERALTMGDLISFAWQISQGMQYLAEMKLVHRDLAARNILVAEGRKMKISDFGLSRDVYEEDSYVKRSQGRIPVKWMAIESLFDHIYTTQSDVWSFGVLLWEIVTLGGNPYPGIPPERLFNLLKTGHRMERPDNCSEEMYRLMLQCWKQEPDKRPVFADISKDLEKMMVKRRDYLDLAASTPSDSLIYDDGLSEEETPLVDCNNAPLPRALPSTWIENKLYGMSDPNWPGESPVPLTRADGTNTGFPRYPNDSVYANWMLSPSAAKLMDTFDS

kinases (KINOMEscan panel) (Homo sapiens, UniProt P53778), sequence (P53778 whole entry): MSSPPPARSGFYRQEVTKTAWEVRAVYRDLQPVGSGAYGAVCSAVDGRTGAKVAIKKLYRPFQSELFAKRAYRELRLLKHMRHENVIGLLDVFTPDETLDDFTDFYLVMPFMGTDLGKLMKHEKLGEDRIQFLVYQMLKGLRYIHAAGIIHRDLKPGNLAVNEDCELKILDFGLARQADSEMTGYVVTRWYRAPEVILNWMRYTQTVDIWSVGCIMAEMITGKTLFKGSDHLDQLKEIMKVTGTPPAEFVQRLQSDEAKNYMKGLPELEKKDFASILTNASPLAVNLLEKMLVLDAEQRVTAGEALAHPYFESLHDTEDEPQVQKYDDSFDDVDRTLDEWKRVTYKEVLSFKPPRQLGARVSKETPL
kinases (KINOMEscan panel) (Homo sapiens, UniProt Q9HAZ1), sequence (Q9HAZ1 whole entry): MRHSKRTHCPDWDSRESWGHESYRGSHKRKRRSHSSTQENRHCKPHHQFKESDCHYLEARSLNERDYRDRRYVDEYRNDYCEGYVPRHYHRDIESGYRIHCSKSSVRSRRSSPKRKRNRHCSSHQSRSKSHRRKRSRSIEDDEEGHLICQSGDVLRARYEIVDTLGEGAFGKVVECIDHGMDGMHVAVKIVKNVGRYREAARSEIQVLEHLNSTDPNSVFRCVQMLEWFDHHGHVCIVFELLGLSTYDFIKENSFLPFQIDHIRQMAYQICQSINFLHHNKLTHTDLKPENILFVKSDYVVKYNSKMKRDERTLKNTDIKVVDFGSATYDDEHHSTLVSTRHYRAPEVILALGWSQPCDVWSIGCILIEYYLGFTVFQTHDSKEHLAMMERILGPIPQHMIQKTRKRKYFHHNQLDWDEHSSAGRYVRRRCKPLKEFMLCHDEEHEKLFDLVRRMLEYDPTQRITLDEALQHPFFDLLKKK
kinases (KINOMEscan panel) (Homo sapiens, UniProt P42336, H1047Y), sequence (P42336 whole entry H1047Y): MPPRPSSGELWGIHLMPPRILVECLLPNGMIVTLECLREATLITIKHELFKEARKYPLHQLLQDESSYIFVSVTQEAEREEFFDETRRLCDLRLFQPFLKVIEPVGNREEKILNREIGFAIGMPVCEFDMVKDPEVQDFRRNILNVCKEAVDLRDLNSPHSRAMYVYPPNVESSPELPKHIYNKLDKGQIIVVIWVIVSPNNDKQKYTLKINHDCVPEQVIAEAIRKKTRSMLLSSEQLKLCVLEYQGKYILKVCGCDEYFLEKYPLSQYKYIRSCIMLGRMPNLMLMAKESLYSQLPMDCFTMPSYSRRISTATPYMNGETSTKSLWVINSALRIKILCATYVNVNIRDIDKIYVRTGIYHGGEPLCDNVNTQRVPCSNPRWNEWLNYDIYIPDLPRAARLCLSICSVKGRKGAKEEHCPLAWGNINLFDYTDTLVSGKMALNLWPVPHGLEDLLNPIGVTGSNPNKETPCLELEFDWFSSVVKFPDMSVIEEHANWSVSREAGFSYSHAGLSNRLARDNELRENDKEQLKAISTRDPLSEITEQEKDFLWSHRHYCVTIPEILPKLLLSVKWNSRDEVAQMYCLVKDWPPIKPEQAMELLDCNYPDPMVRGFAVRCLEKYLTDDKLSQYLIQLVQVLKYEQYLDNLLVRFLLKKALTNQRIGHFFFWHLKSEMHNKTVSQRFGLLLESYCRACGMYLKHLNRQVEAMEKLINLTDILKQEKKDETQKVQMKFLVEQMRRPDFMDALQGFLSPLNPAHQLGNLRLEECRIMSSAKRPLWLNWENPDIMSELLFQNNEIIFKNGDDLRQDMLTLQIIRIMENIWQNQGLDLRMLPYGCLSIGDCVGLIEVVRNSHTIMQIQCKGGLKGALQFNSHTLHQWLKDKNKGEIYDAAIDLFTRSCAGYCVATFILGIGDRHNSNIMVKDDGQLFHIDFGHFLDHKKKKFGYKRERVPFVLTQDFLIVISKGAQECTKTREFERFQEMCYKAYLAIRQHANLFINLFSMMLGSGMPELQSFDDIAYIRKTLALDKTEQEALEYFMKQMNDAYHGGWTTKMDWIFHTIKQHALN
kinases (KINOMEscan panel) (Homo sapiens, UniProt Q9UQM7), sequence (Q9UQM7 whole entry): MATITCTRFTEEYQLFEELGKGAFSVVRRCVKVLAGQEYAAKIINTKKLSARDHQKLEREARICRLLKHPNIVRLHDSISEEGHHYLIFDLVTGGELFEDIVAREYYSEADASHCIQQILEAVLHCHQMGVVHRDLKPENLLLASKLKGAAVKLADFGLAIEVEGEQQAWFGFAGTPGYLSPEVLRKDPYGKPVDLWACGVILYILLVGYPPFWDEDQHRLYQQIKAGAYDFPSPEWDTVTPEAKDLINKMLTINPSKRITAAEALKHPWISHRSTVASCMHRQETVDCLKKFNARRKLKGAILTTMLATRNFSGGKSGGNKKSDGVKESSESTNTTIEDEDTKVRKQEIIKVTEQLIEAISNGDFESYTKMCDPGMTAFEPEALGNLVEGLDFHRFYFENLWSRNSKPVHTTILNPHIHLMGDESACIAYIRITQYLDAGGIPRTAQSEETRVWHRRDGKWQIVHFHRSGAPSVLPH

Structure (SMILES)	KINOMEscan CAMK2A [1]	KINOMEscan PIK3CA(H1047Y) [2]	KINOMEscan CLK4 [3]	KINOMEscan ABL1(Q252H)-nonphosphorylated [4]	KINOMEscan ABL1(Q252H)-phosphorylated [4]	KINOMEscan AXL [5]	KINOMEscan RIOK1 [6]	KINOMEscan MAPK12/p38-gamma [7]	KINOMEscan TTK [8]	KINOMEscan RET(V804M) [9]
Cc1cccc(-c2nc(Nc3ccc4nn(C)cc4c3)c3ccccc3n2)n1 [NK167]	0	0	22	0	0	0	1	43	17	0
Cc1cccc(-c2nc(N(C)c3ccc4ncsc4c3)c3ccccc3n2)n1 [NK-161]	0	4	10	0	0	0	0	27	26	0
